{"source": "paper PMC4627230", "about": "“Identification of TAX2 peptide as a new unpredicted anti-cancer agent” (Oncotarget, 2015)", "format_in_all_cases": "cell-based, human", "key": {"[1]": {"tested_on": "TSP-1:CD47", "assay": "Co-immunoprecipitation TSP-1:CD47 in HUVECs", "conditions": "100 μM vs scrambled peptide 100 μM, n = 3", "procedure": "Figure 2 TAX2 peptide impairs endothelial cell migration and inhibits angiogenesis in vitro and ex vivo A. HUVECs were treated with TAX2 (100 μM) or scrambled peptide (Ctrl, 100 μM). CD47 was immunoprecipitated from total protein lysates using anti-CD47 (clone B6H12) and non-specific IgGs were used as a negative control. Immunocomplexes were then submitted to SDS-PAGE and immunoblotted (IB) using specific TSP-1 and CD47 antibodies. Histogram represents the quantification of co-immunoprecipitated TSP-1 relative to immunoprecipitated CD47. Results are expressed as percentage compared to control (n = 3 separate experiments, t test). B. HUVECs (1 × 10^5 per well) were grown at confluence and then cell proliferation was inhibited by incubating with 10 μg/mL mitomycin C for 2 h. […] Graph represents the quantification of the wounded area. […] Hoechst-stained migrating cells attached on outside surface of the top chamber were photographed (20× objective) and counted. Results are expressed as percentage of migrated cells as compared to control. […] After 8 h incubation, HUVEC tube-like formation was observed on an inverted microscope (40×) and quantification of network total length was done using ImageJ software. […] Data are expressed as the mean ± SE from at least 3 independent experiments, each performed in triplicate. […] The transcriptional level of TSP-1 was assessed by RT-PCR and normalized to β-actin. […]"}, "[2]": {"tested_on": "TSP-1 binding to VEGF", "assay": "Co-immunoprecipitation TSP-1 with VEGF", "conditions": "HUVECs, 100 μM; conditioned media", "procedure": "(§1) Protein lysates prepared in ice-cold lysis buffer or conditioned media were subjected to immunoprecipitation assay using the Pierce Co-IP kit (Thermo Fisher Scientific) according to the manufacturer's protocol. 10 μg of antibody (anti CD47, anti-CD36, anti-FGF2, anti-VEGF, anti-β1 integrin and anti-LRP1 heavy chain) or non-specific IgGs were incubated with the delivered resin and covalently coupled. The antibody-coupled resin was incubated with whole HUVEC protein lysate overnight at 4°C under gentle agitation (no cross-linker was used to stabilize protein complexes before HUVEC lysis). Then the resin was washed and the protein complexes bound to the antibody were eluted. Immunoprecipitated protein complexes were solubilized under denaturing and reducing conditions, heated to 100°C for 5 min and analyzed by immunoblotting as described above. […]\n(§2) receptors. HUVECs were treated with TAX2 (100 μM) or scrambled peptide (Ctrl, 100 μM). FGF-2 and VEGF were immunoprecipitated from conditioned media using anti-FGF-2 (clone C-18) and anti-VEGF (clone C-1), respectively. β1 integrin and LRP-1 were immunoprecipitated from total protein lysates using anti-β1 integrin (clone BV7) and anti-LRP-1 heavy chain (clone 8G1), respectively. […] Histogram represents the quantification of relative ligand-bound TSP-1 under TAX2 treatment as compared to control. […]"}, "[3]": {"tested_on": "TSP-1 binding to LRP-1", "assay": "Co-immunoprecipitation TSP-1 with LRP-1", "conditions": "HUVECs, 100 μM; total protein lysates", "procedure": "as §1, §2"}, "[4]": {"tested_on": "HUVEC", "assay": "HUVEC viability"}, "[5]": {"tested_on": "cGMP production by endothelial cells (HUVECs)", "assay": "Intracellular cGMP after NO stimulation", "conditions": "100 μM for 15 min, then 10 μM DEA-NONOate 10 min, 1 mM IBMX, n = 3 in triplicate, p < 0.05", "procedure": "HUVECs (1 × 10^4 per well) were grown over 24 h in 96-well plates containing EGM-2 full growth medium and then serum-starved in EBM-2 containing 0.1% (v/v) BSA over additional 24 h. Cells were then pre-treated during 15 min with 100 μM TAX2 in EBM-2 without additives plus 0.1% (v/v) BSA before treatment with NO donor in presence of 1 mM IBMX as a phosphodiesterases inhibitor. After 10 min, intracellular cGMP levels were determined according to the manufacturer's instructions using an enzyme immunoassay kit (Amersham Biosciences).\nSupplementary Figure S2: TAX2 inhibits intracellular cGMP production by endothelial cells under NO stimulation. HUVECs (1 × 10^4 per well) were seeded in 96-well plates, maintained in EGM-2 growth medium for 24 h, and then serum-starved for an additional 24 h in EBM-2 containing 0.1% (v/v) BSA. Endothelial cells were then pre-treated with 100 μM TAX2 for 15 min before addition of 10 μM DEA-NONOate. After 10 min, intracellular cGMP was quantified as described in Material & Methods. Results are expressed as percent compared to control (n = 3, each performed in triplicate; t test; * p < 0.05).\n(also on this page, place not known: www.impactjournals.com/oncotarget/ Oncotarget, Materials 2015 Supplementary *p) […]"}}}
{"sequence": "CEVSQLLKGDAC (disulfide) [TAX2, CD47-derived cyclic disulfide dodecapeptide …]", "values": [{"measurement": "TSP-1 binding to CD47 (co-immunoprecipitation)", "setting": "[1]", "value": "specifically prevents TSP-1 binding to CD47"}, {"measurement": "TSP-1 binding to VEGF", "setting": "[2]", "value": "does not affect"}, {"measurement": "TSP-1 binding to LRP-1", "setting": "[3]", "value": "does not affect"}, {"measurement": "cytotoxic effect on HUVECs", "setting": "[4]", "value": "cannot be attributed to any cytotoxic effect"}, {"measurement": "HUVEC viability", "setting": "[4]; percent compared to control treatment, t test", "value": "not significant"}, {"measurement": "decrease of cGMP production after NO stimulation", "setting": "[5]", "value": "around 25%"}]}
